Experimental data from patent US6566368B2, “Apomorphine-containing dosage form for ameliorating male erectile dysfunction” (Pentech Pharmaceuticals, Inc., priority 1994, dated 2003).
Where two headings read alike, the source gives them in different places.

Legend:
clinical = details: male, human, in vivo, iv
[1] = tested on: non-vasculogenic impotent patients; test: Dose Evaluation Study: clinical response to sublingual apomorphine tablets before intercourse; details: for Positive Responses % / Positive Responses No.: 20 days
[2] = tested on: patients with psychogenic impotence; details: for Mean (SE) erectile function / Percent (SE) successful erectile function (score at least 16): N 12
[3] = 3 mg tablet 20 minutes prior to intercourse, 5 patients
[4] = 4 mg tablet 20 minutes prior to intercourse, 5 patients
[5] = 5 mg tablet 20 minutes prior to intercourse, 10 patients
[6] = 6 mg tablet 20 minutes prior to intercourse, 10 patients
[7] = 7 mg tablet 20 minutes prior to intercourse, 10 patients
[8] = 8 mg tablet 20 minutes prior to intercourse, 10 patients
[9] = 10 mg tablet 20 minutes prior to intercourse, 10 patients
[10] = sublingual tablets 3, 4, 5 mg (Table I), twelve patients

## CN1CCc2cccc3c2[C@H]1Cc1ccc(O)c(O)c1-3 [apomorphine]
clinical; 1 mg, AUC (0-inf)
  AUC(0-inf): 3.45 ng·h/mL
clinical; 1 mg, Cl
  clearance: 5100 mL/min
clinical; Cmax
  Cmax: 8.36 ng/mL
[1]; [3]
  Positive Responses %: 0%
  Positive Responses No.: 0
[1]; 3 mg tablet, 5 patients
  Nausea %: 0%
  Nausea No.: 0
  Vomiting %: 0%
  Vomiting No.: 0
[1]; [4]
  Positive Responses %: 40%
  Positive Responses No.: 2
[1]; 4 mg tablet, 5 patients
  Nausea %: 20%
  Nausea No.: 1
  Vomiting %: 20%
  Vomiting No.: 1
[1]; [5]
  Positive Responses %: 50%
  Positive Responses No.: 5
[1]; 5 mg tablet, 10 patients
  Nausea %: 20%
  Nausea No.: 2
  Vomiting %: 10%
  Vomiting No.: 1
[1]; [6]
  Positive Responses %: 70%
  Positive Responses No.: 7
[1]; 6 mg tablet, 10 patients
  Nausea %: 20%
  Nausea No.: 2
  Vomiting %: 20%
  Vomiting No.: 2
[1]; [7]
  Positive Responses %: 70%
  Positive Responses No.: 7
[1]; 7 mg tablet, 10 patients
  Nausea %: 20%
  Nausea No.: 2
  Vomiting %: 20%
  Vomiting No.: 2
[1]; [8]
  Positive Responses %: 70%
  Positive Responses No.: 7
[1]; 8 mg tablet, 10 patients
  Nausea %: 30%
  Nausea No.: 3
  Vomiting %: 30%
  Vomiting No.: 3
[1]; [9]
  Positive Responses %: 80%
  Positive Responses No.: 8
[1]; 10 mg tablet, 10 patients
  Nausea %: 40%
  Nausea No.: 4
  Vomiting %: 40%
  Vomiting No.: 4
[2]; 3 mg and 4 mg, regardless of stimulus background
  active treatment compared with placebo, mean erectile function: more effective than placebo
[2]; Erotic stimulus, 3 mg
  Mean (SE) erectile function: 18.75 (2.51)
  Percent (SE) successful erectile function (score at least 16): 66.67 (13.61) Percent
[2]; Erotic stimulus, 4 mg
  Mean (SE) erectile function: 19.83 (2.67)
  Percent (SE) successful erectile function (score at least 16): 66.67 (13.61) Percent
[2]; Neutral stimulus, 3 mg
  Mean (SE) erectile function: 11.83 (2.68)
  Percent (SE) successful erectile function (score at least 16): 50.00 (14.43) Percent
[2]; Neutral stimulus, 4 mg
  Mean (SE) erectile function: 13.50 (2.61)
  Percent (SE) successful erectile function (score at least 16): 50.00 (14.43) Percent
[2]; all doses 3, 4, 5 mg
  number of yawns: one or two
[2]; eight successful patients, one to four months
  domestic use, patient reports: good erectile activity and no side effects
[2]; of group of seven
  patients successfully treated among those who had failed a trial of yohimbine HCl: four
[2]; [10]
  failures with apomorphine: 33%
  patients successful with apomorphine: 67%
IV Administration, mean (Table XII)
  Ke: 0.0237 min⁻¹
IV administration 1 mg, mean, n = 7
  Ke: 0.0237 min⁻¹
male, human, in vivo, 0.114 mg/kg
  Vd: 2.07 L/kg
Sublingual 4 mg dose, individual subjects #1, #3, #6, #7
  Ke: 0.0060 min⁻¹
Sublingual 8 mg Dose, mean (Table XII)
  Ke: 0.0056 min⁻¹
Sublingual administration 8 mg dose, mean, n = 4
  Ke: 0.0056 min⁻¹
